From US9034887B2, “Dihydroorotate dehydrogenase as antifungal drug target and quinazolinone-based inhibitors thereof” (F2G Limited, priority 2008, dated 2015)

Assays:
Aspergillus flavus [1] = assay: MIC in RPMI medium, A. flavus; type: cell-based; details: 24-48 hrs at 35° C., >80% growth inhibition, read-out: MIC grade, A. flavus
Method: (§1) Between 1 and 5 mgs of compound were accurately weighed out into a sterile Eppendorf tube. The compound was dissolved in DMSO to give a solution containing 5 mg/mL. Tubes were stored at −20° C. until required.
(§2) On the day of testing thawed solutions were vortex mixed to ensure homogeneity. 30 μL of solution was removed and added to 570 μL of sterile water in a separate sterile Eppendorf. The thoroughly mixed solution was used to prepare a series of doubling dilutions in water, in a deep well plate. Thirteen replicate plates were prepared using a Minitrak by aspirating 20 μL from each well into eleven clear polystyrene 96 well plates.
(§3) Assays were also performed in RPMI medium. To perform MIC tests in this medium, dilutions of compounds are prepared in microtitre plates as described above. Fungal strains to be tested are grown and harvested in an identical manner to that described above, and each organism suspension was diluted in RPMI medium, containing 2% glucose and 0.135 M MOPS buffer (pH 7.0) to 0.5-2×10^4 cfu/mL, rather than in YAG medium. 80 μL of an organism suspension was added to each well of the plate containing drug dilutions.
(§4) All plates were incubated for 24-48 hrs at 35° C. Growth was assessed by monitoring the optical density at 485 nm for each well. […] The following organisms were tested: Aspergillus flavus, Aspergillus fumigatus AF293 and AF210, Aspergillus niger and Aspergillus terreus AT4 and AT49.

Aspergillus terreus = assay: MIC in YAG medium, A. terreus; type: cell-based; details: 24 hrs at 35° C., >70% growth inhibition, read-out: MIC grade, A. terreus
Method: as §1, §2
(§5) Spores of Aspergillus spp. (Aspergillus fumigatus [two strains], Aspergillus terreus [two strains], Aspergillus niger and Aspergillus flavus) were harvested from cultures grown on Sabarauds agar for 5 days, and resuspended in PBS/Tween 80 to approx 1×10^7 cfu/mL. Each organism suspension was diluted in YAG medium (1% glucose, 1% ammonium chloride and 0.5% yeast extract) to 0.5-2×10^4 cfu/mL. 80 μL of an organism suspension was added to each well of the plate containing drug dilutions.
(§6) All plates were incubated for 24 hrs at 35° C. Growth was assessed by monitoring the optical density at 485 nm for each well. The MIC of a compound is the lowest drug concentration that inhibits growth of an organism by >70% compared with a drug free control. MICs are recorded as mg/L. In cases where the MIC of an organism is […] the MIC is repeated using a concentration range of 0.5-0.0005 mg/L.

A. fumigatus 210 = assay: MIC in YAG medium, A. fumigatus 210; type: cell-based; details: Aspergillus fumigatus, 24 hrs at 35° C., >70% growth inhibition, read-out: MIC grade, A. fumigatus 210
Method: as §1, §2, §5, §6

[2] = biological target: T1, Recombinant DHODH from human (Homo sapiens, UniProt Q02127); assay: DHODH inhibition screen (DCIP reduction, 600 nm), human enzyme; type: biochemical; details: Table 3, read-out: IC50 values for Compound Examples 1 to 15 identified from screens, Human
T1 construct: His-tag; NusA (Nus-tag) fusion of vector pET43.1 (own knowledge of the vector) (N); made in house; host or cells: E. coli BL21 DE3
T1 sequence (Q02127 31-395 limits assumed): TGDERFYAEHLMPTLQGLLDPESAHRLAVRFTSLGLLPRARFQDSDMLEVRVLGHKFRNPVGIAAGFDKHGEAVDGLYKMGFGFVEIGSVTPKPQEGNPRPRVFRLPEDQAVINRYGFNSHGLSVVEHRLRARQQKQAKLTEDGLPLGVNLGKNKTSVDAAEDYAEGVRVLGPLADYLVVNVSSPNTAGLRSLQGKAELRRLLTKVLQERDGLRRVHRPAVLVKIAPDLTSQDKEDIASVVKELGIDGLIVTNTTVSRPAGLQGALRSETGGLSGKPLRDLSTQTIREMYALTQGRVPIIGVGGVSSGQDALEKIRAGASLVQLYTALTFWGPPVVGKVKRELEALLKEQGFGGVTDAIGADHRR
Method: (§7) 1. The following buffer and stock solution were prepared:
Coenzyme Q2 (Sigma) was dissolved in DMSO to give a concentration of 10 mg/ml. […] The stock solution was made with 127.36 μl DHO, 127.36 μl DCIP and 318.4 μl Coenzyme Q2, made up to 80 ml with Buffer A. Final concentrations in assay wells were; DHO, 500 μM; Coenzyme Q, 50 μM; DCIP, 100 μM.
2. […] Duplicate sets of plates were used such that one set received enzyme while a control set received no enzyme.
3. […] Then 20 μl of DHODH solution was added to all the +enzyme plates and 20 μl of Buffer A was added to all the control −enzyme plates.
(§8) 4. 20 μl of DHO/Coenzyme Q2/DCIP solution was added to all the wells, after which plates were incubated at room temperature for […] and then read on a Tecan Safire spectrophotometer at 600 nm.
(§9) Recombinant DHODH from human or C. albicans was assayed in the same way. It is necessary to adjust the enzyme concentration and reaction time to take into account variations in activity of enzyme batches, thus the incubation time was 20 minutes for the C. albicans enzyme and 34 minutes for the human enzyme.

Aspergillus fumigatus = assay: MIC in YAG medium, A. fumigatus; type: cell-based; details: 24 hrs at 35° C., >70% growth inhibition, read-out: MIC grade, A. fumigatus
Method: as §1, §2, §5, §6

Aspergillus flavus [3] = assay: MIC in YAG medium, A. flavus; type: cell-based; details: 24 hrs at 35° C., >70% growth inhibition, read-out: MIC grade, A. flavus
Method: as §1, §2, §5, §6

Aspergillus terreus AT49 = assay: MIC in RPMI medium, A. terreus 49; type: cell-based; details: 24-48 hrs at 35° C., >80% growth inhibition, read-out: MIC grade, A. terreus 49
Method: as §1, §2, §3, §4

Aspergillus niger [4] = assay: MIC in YAG medium, A. niger; type: cell-based; details: 24 hrs at 35° C., >70% growth inhibition, read-out: MIC grade, A. niger
Method: as §1, §2, §5, §6

[5] = biological target: Recombinant A. fumigatus DHODH (Aspergillus fumigatus, UniProt Q4X169); assay: DHODH inhibition screen (DCIP reduction, 600 nm), A. fumigatus enzyme; type: biochemical
Sequence of Recombinant A. fumigatus DHODH (Q4X169 entry or part of it): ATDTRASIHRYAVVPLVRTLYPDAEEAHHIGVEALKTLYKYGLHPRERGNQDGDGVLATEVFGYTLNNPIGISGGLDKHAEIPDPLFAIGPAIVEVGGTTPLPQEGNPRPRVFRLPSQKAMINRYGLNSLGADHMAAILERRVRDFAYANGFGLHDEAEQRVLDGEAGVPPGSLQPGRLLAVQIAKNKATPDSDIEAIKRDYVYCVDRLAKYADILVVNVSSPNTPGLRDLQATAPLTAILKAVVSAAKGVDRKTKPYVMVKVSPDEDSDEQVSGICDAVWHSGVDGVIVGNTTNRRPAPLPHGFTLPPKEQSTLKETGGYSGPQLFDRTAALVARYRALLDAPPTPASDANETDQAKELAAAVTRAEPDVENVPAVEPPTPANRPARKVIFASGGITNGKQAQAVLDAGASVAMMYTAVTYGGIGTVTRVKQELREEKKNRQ
Method: as §7
Buffer A: 62.5 mM TrisHCl (pH8.0), 150 mM NaCl, 10% v/v glycerol
DHO/Coenzyme Q2/DCIP solution: 19.848 mg dihydroorotate (DHO; Sigma) was dissolved in 160 μl DMSO. Coenzyme Q2 (Sigma) was dissolved in DMSO to give a concentration of 10 mg/ml. 7.236 mg 2,6-dichloroindophenol (DCIP; Sigma) was dissolved in 160 μl DMSO. The stock solution was made with 127.36 μl DHO, 127.36 μl DCIP and 318.4 μl Coenzyme Q2, made up to 80 ml with Buffer A. Final concentrations in assay wells were; DHO, 500 μM; Coenzyme Q, 50 μM; DCIP, 100 μM.
2. Compounds were aliquotted into 384-well microtitre plates at a range of dilutions to give final concentrations in the assay of […]. Duplicate sets of plates were used such that one set received enzyme while a control set received no enzyme. Since compounds are frequently dissolved in DMSO or a DMSO/water mixture, assays were set up to give a final concentration of 1% (v/v) DMSO in wells.
3. Recombinant A. fumigatus DHODH was suspended in Buffer A to give a concentration of 1435.8 ng protein in 20 μl. Then 20 μl of DHODH solution was added to all the +enzyme plates and 20 μl of Buffer A was added to all the control −enzyme plates.
as §8
as §9, with “enzyme. Compounds are screened against a fungal and human enzyme to identify compounds which are selective for the fungal enzyme.” for “enzyme.”

[6] = system: Aspergillus fumigatus AF293; assay: MIC in RPMI medium, A. fumigatus; type: cell-based; details: 24-48 hrs at 35° C., >80% growth inhibition, read-out: MIC grade, A. fumigatus
Method: as §1, §2, §3, §4

Aspergillus niger [7] = assay: MIC in RPMI medium, A. niger; type: cell-based; details: 24-48 hrs at 35° C., >80% growth inhibition, read-out: MIC grade, A. niger
Method: as §1, §2, §3, §4

A. terreus 49 = assay: MIC in YAG medium, A. terreus 49; type: cell-based; details: Aspergillus terreus, 24 hrs at 35° C., >70% growth inhibition, read-out: MIC grade, A. terreus 49
Method: as §1, §2, §5, §6

Aspergillus terreus AT4 = assay: MIC in RPMI medium, A. terreus; type: cell-based; details: 24-48 hrs at 35° C., >80% growth inhibition, read-out: MIC grade, A. terreus
Method: as §1, §2, §3, §4

[8] = system: Aspergillus fumigatus AF210; assay: MIC in RPMI medium, A. fumigatus 210; type: cell-based; details: 24-48 hrs at 35° C., >80% growth inhibition, read-out: MIC grade, A. fumigatus 210
Method: as §1, §2, §3, §4

COc1ccccc1-n1c(SC(C)C)nc2ccc(N(C)C)cc2c1=O [Compound Example 6, 6-Dimethylamino-2-isopropylsulfanyl-3-(2-methoxy-phenyl)-3H-quinazolin-4-one]
> 10 µg/mL: MIC (Aspergillus flavus [1]) | MIC (Aspergillus flavus [3]) | MIC (Aspergillus terreus AT49) | MIC [6] | MIC (Aspergillus terreus AT4)
10.1 µM: IC50 [5]
1 to 10 µg/mL: MIC (Aspergillus terreus) | MIC (A. fumigatus 210) | MIC (Aspergillus fumigatus) | MIC (A. terreus 49) | MIC [8]
< 1 µg/mL: MIC (Aspergillus niger [4]) | MIC (Aspergillus niger [7])
1.09 µM: IC50 [2]

COc1ccccc1-n1c(SC(C)C)nc2ccc(C)cc2c1=O [Compound Example 2, 2-Isopropylsulfanyl-3-(2-methoxy-phenyl)-6-methyl-3H-quinazolin-4-one]
< 1 µg/mL: MIC (Aspergillus terreus) | MIC (A. fumigatus 210) | MIC (Aspergillus fumigatus) | MIC (Aspergillus niger [4]) | MIC (Aspergillus niger [7]) | MIC (A. terreus 49)
> 10 µg/mL: MIC (Aspergillus flavus [1]) | MIC (Aspergillus flavus [3]) | MIC (Aspergillus terreus AT4)
1 to 10 µg/mL: MIC (Aspergillus terreus AT49) | MIC [6] | MIC [8]

CCSc1nc2ccccc2c(=O)n1-c1ccccc1C(C)C [Compound Example 15, 2-Ethylsulfanyl-3-(2-isopropyl-phenyl)-3H-quinazolin-4-one]
46.1 µM: IC50 [5]
23.2 µM: IC50 [2]
< 1 µg/mL: MIC (A. fumigatus 210) | MIC (Aspergillus fumigatus) | MIC (Aspergillus niger [4]) | MIC [6] | MIC (Aspergillus niger [7]) | MIC (A. terreus 49)
1 to 10 µg/mL: MIC (Aspergillus terreus) | MIC [8]
> 10 µg/mL: MIC (Aspergillus flavus [1]) | MIC (Aspergillus flavus [3]) | MIC (Aspergillus terreus AT49) | MIC (Aspergillus terreus AT4)

COc1ccccc1-n1c(SC(C)C)nc2cccc(OC)c2c1=O [Compound Example 4, 2-Isopropylsulfanyl-5-methoxy-3-(2-methoxy-phenyl)-3H-quinazolin-4-one]
> 10 µg/mL: MIC (Aspergillus flavus [1])
4.95 µM: IC50 [5]
1 to 10 µg/mL: MIC (Aspergillus flavus [3]) | MIC (Aspergillus terreus AT49) | MIC (Aspergillus terreus AT4) | MIC [8]
73 µM: IC50 [2]
< 1 µg/mL: MIC (Aspergillus terreus) | MIC (A. fumigatus 210) | MIC (Aspergillus fumigatus) | MIC (Aspergillus niger [4]) | MIC [6] | MIC (Aspergillus niger [7]) | MIC (A. terreus 49)

COc1ccc2nc(SC(C)C)n(-c3ccccc3OC)c(=O)c2c1 [Compound Example 10, 2-Isopropylsulfanyl-6-methoxy-3-(2-methoxy-phenyl)-3H-quinazolin-4-one]
19.6 µM: IC50 [5]
< 1 µg/mL: MIC (Aspergillus niger [4]) | MIC (A. terreus 49)
1 to 10 µg/mL: MIC (Aspergillus terreus) | MIC (A. fumigatus 210) | MIC (Aspergillus fumigatus) | MIC (Aspergillus niger [7])
> 10 µg/mL: MIC (Aspergillus flavus [1]) | MIC (Aspergillus flavus [3]) | MIC (Aspergillus terreus AT49) | MIC [6] | MIC (Aspergillus terreus AT4) | MIC [8]
50.2 µM: IC50 [2]

CCSc1nc2cccc(C)c2c(=O)n1-c1ccccc1OC [Compound Example 14, 2-Ethylsulfanyl-3-(2-methoxy-phenyl)-5-methyl-3H-quinazolin-4-one]
1 to 10 µg/mL: MIC (Aspergillus flavus [3]) | MIC (Aspergillus terreus AT49) | MIC [6] | MIC [8]
32.1 µM: IC50 [2]
> 10 µg/mL: MIC (Aspergillus flavus [1]) | MIC (Aspergillus terreus AT4)
< 1 µg/mL: MIC (Aspergillus terreus) | MIC (A. fumigatus 210) | MIC (Aspergillus fumigatus) | MIC (Aspergillus niger [4]) | MIC (Aspergillus niger [7]) | MIC (A. terreus 49)
43.7 µM: IC50 [5]

COc1ccccc1-n1c(SC(C)C)nc2cc(C)ccc2c1=O [Compound Example 1, 2-Isopropylsulfanyl-3-(2-methoxy-phenyl)-7-methyl-3H-quinazolin-4-one]
1 to 10 µg/mL: MIC [6] | MIC [8]
> 10 µg/mL: MIC (Aspergillus flavus [1]) | MIC (Aspergillus niger [7])
< 1 µg/mL: MIC (Aspergillus terreus) | MIC (A. fumigatus 210) | MIC (Aspergillus fumigatus) | MIC (Aspergillus flavus [3]) | MIC (Aspergillus terreus AT49) | MIC (Aspergillus niger [4]) | MIC (A. terreus 49) | MIC (Aspergillus terreus AT4)

COc1ccccc1-n1c(SC(C)C)nc2cccc(C)c2c1=O [Compound Example 3, 2-Isopropylsulfanyl-3-(2-methoxy-phenyl)-5-methyl-3H-quinazolin-4-one]
> 10 µg/mL: MIC (Aspergillus flavus [1]) | MIC (Aspergillus flavus [3]) | MIC (Aspergillus terreus AT4)
< 1 µg/mL: MIC (Aspergillus terreus) | MIC (A. fumigatus 210) | MIC (Aspergillus fumigatus) | MIC (Aspergillus niger [4]) | MIC (Aspergillus niger [7]) | MIC (A. terreus 49)
1 to 10 µg/mL: MIC (Aspergillus terreus AT49) | MIC [6] | MIC [8]

CCSc1nc2ccccc2c(=O)n1-c1ccccc1CC [Compound Example 13, 3-(2-Ethyl-phenyl)-2-ethylsulfanyl-3H-quinazolin-4-one]
36.2 µM: IC50 [5]
> 10 µg/mL: MIC (Aspergillus flavus [1]) | MIC (Aspergillus flavus [3]) | MIC (Aspergillus terreus AT49) | MIC (Aspergillus terreus AT4) | MIC [8]
< 1 µg/mL: MIC (Aspergillus niger [4])
1 to 10 µg/mL: MIC (Aspergillus terreus) | MIC (A. fumigatus 210) | MIC (Aspergillus fumigatus) | MIC [6] | MIC (Aspergillus niger [7]) | MIC (A. terreus 49)
86.1 µM: IC50 [2]
